Data: ChEMBL document CHEMBL5113392, “Novel hybrid pyrrolidinedione-thiazolidinones as potential anticancer agents: Synthesis and biological evaluation” (Eur J Med Chem, 2022)
Calls of active or inactive are those of the source. The rule behind the calls is not given here.

Key:
[1] = system: RXF 393; assay: Anticancer activity against human RXF 393 cells assessed as inhibition of cell growth at 10 uM incubated for 48 hrs by SRB assay; assay type: functional; details: RXF 393, 48 h, values are per cent of control
[2] = system: SR; assay: Anticancer activity against human SR cells assessed as growth inhibition incubated for 48 hrs by SRB assay; assay type: functional
[3] = system: HOP-62; assay: Anticancer activity against human HOP-62 cells assessed as growth inhibition incubated for 48 hrs by SRB assay; assay type: functional
[4] = system: HOP-92; assay: Anticancer activity against human HOP-92 cells assessed as growth inhibition incubated for 48 hrs by SRB assay; assay type: functional
[5] = system: NCI-H226; assay: Anticancer activity against human NCI-H226 cells assessed as growth inhibition incubated for 48 hrs by SRB assay; assay type: functional
[6] = system: NCI-H460; assay: Anticancer activity against human NCI-H460 cells assessed as growth inhibition incubated for 48 hrs by SRB assay; assay type: functional
[7] = system: HCC 2998; assay: Anticancer activity against human HCC 2998 cells assessed as growth inhibition incubated for 48 hrs by SRB assay; assay type: functional
[8] = system: KM12; assay: Anticancer activity against human KM12 cells assessed as growth inhibition incubated for 48 hrs by SRB assay; assay type: functional
[9] = system: SW-620; assay: Anticancer activity against human SW-620 cells assessed as growth inhibition incubated for 48 hrs by SRB assay; assay type: functional
[10] = system: SF-539; assay: Anticancer activity against human SF-539 cells assessed as growth inhibition incubated for 48 hrs by SRB assay; assay type: functional
[11] = system: M14; assay: Anticancer activity against human M14 cells assessed as growth inhibition incubated for 48 hrs by SRB assay; assay type: functional
[12] = system: UACC-62; assay: Anticancer activity against human UACC-62 cells assessed as growth inhibition incubated for 48 hrs by SRB assay; assay type: functional
[13] = system: RXF 393; assay: Anticancer activity against human RXF 393 cells assessed as growth inhibition incubated for 48 hrs by SRB assay; assay type: functional
[14] = system: SN12C; assay: Anticancer activity against human SN12C cells assessed as growth inhibition incubated for 48 hrs by SRB assay; assay type: functional
[15] = system: DU-145; assay: Anticancer activity against human DU-145 cells assessed as growth inhibition incubated for 48 hrs by SRB assay; assay type: functional
[16] = system: MDA-MB-231; assay: Anticancer activity against human MDA-MB-231 cells assessed as growth inhibition incubated for 48 hrs by SRB assay; assay type: functional
[17] = system: MDA-MB-468; assay: Anticancer activity against human MDA-MB-468 cells assessed as growth inhibition incubated for 48 hrs by SRB assay; assay type: functional
[18] = system: K562; assay: Anticancer activity against human K562 cells assessed as total growth inhibition incubated for 48 hrs by SRB assay; assay type: functional
[19] = system: A549; assay: Anticancer activity against human A549 cells assessed as total growth inhibition incubated for 48 hrs by SRB assay; assay type: functional
[20] = system: HOP-92; assay: Anticancer activity against human HOP-92 cells assessed as total growth inhibition incubated for 48 hrs by SRB assay; assay type: functional
[21] = system: NCI-H522; assay: Anticancer activity against human NCI-H522 cells assessed as total growth inhibition incubated for 48 hrs by SRB assay; assay type: functional
[22] = system: HCC 2998; assay: Anticancer activity against human HCC 2998 cells assessed as total growth inhibition incubated for 48 hrs by SRB assay; assay type: functional
[23] = system: SW-620; assay: Anticancer activity against human SW-620 cells assessed as total growth inhibition incubated for 48 hrs by SRB assay; assay type: functional
[24] = system: SF-268; assay: Anticancer activity against human SF-268 cells assessed as total growth inhibition incubated for 48 hrs by SRB assay; assay type: functional
[25] = system: SNB-19; assay: Anticancer activity against human SNB-19 cells assessed as total growth inhibition incubated for 48 hrs by SRB assay; assay type: functional
[26] = system: OVCAR-8; assay: Anticancer activity against human OVCAR-8 cells assessed as total growth inhibition incubated for 48 hrs by SRB assay; assay type: functional
[27] = system: SN12C; assay: Anticancer activity against human SN12C cells assessed as total growth inhibition incubated for 48 hrs by SRB assay; assay type: functional
[28] = system: MCF7; assay: Anticancer activity against human MCF7 cells assessed as total growth inhibition incubated for 48 hrs by SRB assay; assay type: functional
[29] = system: RPMI-8226; assay: Anticancer activity against human RPMI-8226 cells assessed as lethality incubated for 48 hrs by SRB assay; assay type: functional; details: read-out: LC50 (the source's name)
[30] = system: EKVX; assay: Anticancer activity against human EKVX cells assessed as lethality incubated for 48 hrs by SRB assay; assay type: functional; details: read-out: LC50 (the source's name)
[31] = system: HOP-92; assay: Anticancer activity against human HOP-92 cells assessed as lethality incubated for 48 hrs by SRB assay; assay type: functional; details: read-out: LC50 (the source's name)
[32] = system: SNB-19; assay: Anticancer activity against human SNB-19 cells assessed as lethality incubated for 48 hrs by SRB assay; assay type: functional; details: read-out: LC50 (the source's name)
[33] = system: UACC-257; assay: Anticancer activity against human UACC-257 cells assessed as lethality incubated for 48 hrs by SRB assay; assay type: functional; details: read-out: LC50 (the source's name)
[34] = system: OVCAR-3; assay: Anticancer activity against human OVCAR-3 cells assessed as lethality incubated for 48 hrs by SRB assay; assay type: functional; details: read-out: LC50 (the source's name)
[35] = system: OVCAR-4; assay: Anticancer activity against human OVCAR-4 cells assessed as lethality incubated for 48 hrs by SRB assay; assay type: functional; details: read-out: LC50 (the source's name)
[36] = system: OVCAR-8; assay: Anticancer activity against human OVCAR-8 cells assessed as lethality incubated for 48 hrs by SRB assay; assay type: functional; details: read-out: LC50 (the source's name)
[37] = system: CAKI-1; assay: Anticancer activity against human CAKI-1 cells assessed as lethality incubated for 48 hrs by SRB assay; assay type: functional; details: read-out: LC50 (the source's name)
[38] = system: TK-10; assay: Anticancer activity against human TK-10 cells assessed as lethality incubated for 48 hrs by SRB assay; assay type: functional; details: read-out: LC50 (the source's name)
[39] = system: UO-31; assay: Anticancer activity against human UO-31 cells assessed as lethality incubated for 48 hrs by SRB assay; assay type: functional; details: read-out: LC50 (the source's name)
[40] = system: DU-145; assay: Anticancer activity against human DU-145 cells assessed as lethality incubated for 48 hrs by SRB assay; assay type: functional; details: read-out: LC50 (the source's name)
[41] = system: KB 3-1; assay: Anticancer activity against human KB 3-1 cells assessed as cell growth inhibition incubated for 72 hrs by MTT assay; assay type: functional
[42] = system: HCT-116; assay: Anticancer activity against human HCT-116 cells assessed as cell growth inhibition incubated for 72 hrs by MTT assay; assay type: functional
[43] = Anticancer activity against human HCT116-p53-null cells assessed as cell growth inhibition incubated for 72 hrs by MTT assay; assay type: functional
[44] = Selectivity index, ratio of GI50 for human HaCaT cells to GI50 for human KB 3-1 cells; assay type: toxicity; details: HaCaT cells versus KB 3-1 cells, read-out: RatioGI50
[45] = Selectivity index, ratio of GI50 for human HaCaT cells to GI50 for human HCT-116 cells; assay type: toxicity; details: HaCaT cells versus HCT-116 cells, read-out: RatioGI50
[46] = Cytotoxicity against mitogen activated human peripheral blood lymphocytes assessed as cell growth inhibition incubated for 48 hrs by MTT assay; assay type: toxicity, cell-based, Lymphocyte
[47] = system: Jurkat; assay: Induction of morphological changes in human Jurkat cells assessed as chromatin topology incubated for 24 hrs by Hoechst 33258 and propidium iodide staining based fluorescence microscopy; assay type: functional, cell-based
[48] = system: Jurkat; assay: Induction of morphological changes in human Jurkat cells assessed as chromatin condensation incubated for 24 hrs by Hoechst 33258 and propidium iodide staining based fluorescence microscopy; assay type: functional, cell-based
[49] = system: Jurkat; assay: Induction of morphological changes in human Jurkat cells assessed as plasma membrane blebbing incubated for 24 hrs by Hoechst 33258 and propidium iodide staining based fluorescence microscopy; assay type: functional, cell-based

O=C1CC(N2C(=O)/C(=C/C(Cl)=C/c3ccc([N+](=O)[O-])cc3)SC2=S)C(=O)N1c1ccc(Cl)cc1 (centres undefined)
growth, % of control at 10 µM [1]: -64.1%
GI50 [2]: 0.544 µM
GI50 [3]: 1.73 µM
GI50 [4]: 2.58 µM
GI50 [5]: 1.92 µM
GI50 [6]: 3.3 µM
GI50 [7]: 1.59 µM
GI50 [8]: 1.96 µM
GI50 [9]: 0.508 µM
GI50 [10]: 1.69 µM
GI50 [11]: 2.11 µM
GI50 [12]: 1.77 µM
GI50 [13]: 1.26 µM
GI50 [14]: 1.69 µM
GI50 [15]: 2.09 µM
GI50 [16]: 3.75 µM
GI50 [17]: 1.33 µM
TGI [18]: 11.6 µM
TGI [19]: > 100 µM
TGI [20]: 6.79 µM
TGI [21]: 4.36 µM
TGI [22]: 3.03 µM
TGI [23]: 3.9 µM
TGI [24]: > 100 µM
TGI [25]: 2.97 µM
TGI [26]: > 100 µM
TGI [27]: 11.1 µM
TGI [28]: > 100 µM
CC50 [29]: 71 µM
CC50 [30]: > 100 µM
CC50 [31]: > 100 µM
CC50 [32]: 7.54 µM
CC50 [33]: > 100 µM
CC50 [34]: 8.89 µM
CC50 [35]: > 100 µM
CC50 [36]: > 100 µM
CC50 [37]: 9.52 µM
CC50 [38]: > 100 µM
CC50 [39]: > 100 µM
CC50 [40]: > 100 µM
GI50 [41]: 70.3 µM
GI50 [42]: 9.18 µM
GI50 [43]: 6 µM
selectivity ratio [44]: 1.42
selectivity ratio [45]: 10.9
GI50 at 48 h [46]: 28.9 µM
Activity [47]: Active
Activity [48]: Active
Activity [49]: Active
